Assay results as given in patent publication US8906852B2 (MethylGene Inc., priority 2010, dated 2014).

These molecules were tested against T1, VEGFR/KDR (Homo sapiens, UniProt P35968) (assay: VEGFR/KDR kinase inhibition, DELFIA assay). Conditions: ATP 0.6 uM (2x Km), enzyme 5 nM.
T1 construct: made in house; host or cells: Sf9 cells (Spodoptera frugiperda), baculovirus
Format: biochemical
Outline: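 Enzyme (5 nM) pre-incubated 4 min on ice with inhibitor and Mg-ATP (0.6 uM, 2× Km), then reacted 10-30 min at 30° C on immobilized poly(Glu4,Tyr). EDTA-quenched phosphotyrosine detected with Europium-labeled antibody by time-resolved fluorescence; IC50 from concentration series.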

T1 sequence (P35968 806-1356): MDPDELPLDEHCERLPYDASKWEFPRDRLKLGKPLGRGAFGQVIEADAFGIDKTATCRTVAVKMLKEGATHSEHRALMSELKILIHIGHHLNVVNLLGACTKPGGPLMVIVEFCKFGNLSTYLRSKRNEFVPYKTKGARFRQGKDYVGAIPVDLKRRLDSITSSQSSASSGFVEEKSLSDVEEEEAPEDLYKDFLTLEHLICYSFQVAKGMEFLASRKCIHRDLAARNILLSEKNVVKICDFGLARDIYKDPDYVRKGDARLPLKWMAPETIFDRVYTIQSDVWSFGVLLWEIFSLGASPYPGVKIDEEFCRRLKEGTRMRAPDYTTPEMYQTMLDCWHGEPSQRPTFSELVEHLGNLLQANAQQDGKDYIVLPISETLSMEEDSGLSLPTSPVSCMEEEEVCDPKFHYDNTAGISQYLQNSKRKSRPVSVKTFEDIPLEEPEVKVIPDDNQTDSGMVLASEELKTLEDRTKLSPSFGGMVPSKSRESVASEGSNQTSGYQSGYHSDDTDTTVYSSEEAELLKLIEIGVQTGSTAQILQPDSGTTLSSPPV

`O=C(Nc1ccc(Oc2ccnc3cc(-c4ccc(COC5CNC5)cn4)sc23)c(F)c1)NC1CC1` [Compound 405, 1-(4-(2-(5-((Azetidin-3-yloxy)methyl)pyridin-2-yl)thieno[3,2-b]pyridin-7-yloxy)-3-fluorophenyl)-3-cyclopropylurea] and `CC(=O)N(CCO)Cc1ccc(-c2cc3nccc(Oc4ccc(NC(=O)NC5CC5)cc4F)c3s2)nc1` [Compound 10, N-((6-(7-(4-(3-cyclopropylureido)-2-fluorophenoxy)thieno[3,2-b]pyridin-2-yl)pyridin-3-yl)methyl)-N-(2-hydroxyethyl)acetamide] cannot be ordered by IC50: under 50 nM for the first, under 50 nM for the second.

Compared with `CC(C)(C)C(=O)O[C@H]1CCN(C(=O)c2cc3nccc(Oc4ccc(NC(=O)NC5CC5)cc4F)c3s2)C1` [Compound 448], `CN(C)[C@H]1CCN(C(=O)c2cc3nccc(Oc4ccc(NC(=O)NC5CC5)cc4F)c3s2)C1` [Compound 441] is lower in IC50: 100 to 250 nM for the first, under 50 nM for the second.

`CC(=O)OCC(=O)N1CCN(Cc2ccc(-c3cc4nccc(Oc5ccc(NC(=O)NC6CC6)cc5F)c4s3)nc2)CC1` [Compound 310, 2-(4-((6-(7-(4-(3-cyclopropylureido)-2-fluorophenoxy)thieno[3,2-b]pyridin-2-yl)pyridin-3-yl)methyl)piperazin-1-yl)-2-oxoethyl acetate] and `O=C(Nc1ccc(Oc2ccnc3cc(-c4ccc(CN5CCCN(C(=O)CO)CC5)cn4)sc23)c(F)c1)NC1CC1` [Compound 526, 1-cyclopropyl-3-(3-fluoro-4-(2-(5-((4-(2-hydroxyacetyl)-1,4-diazepan-1-yl)methyl)pyridin-2-yl)thieno[3,2-b]-pyridin-7-yloxy)phenyl)urea] cannot be ordered by IC50: under 50 nM for the first, under 50 nM for the second.

First: CCC(=O)N(CCOC)Cc1ccc(-c2cc3nccc(Oc4ccc(NC(=O)NC5CC5)cc4F)c3s2)nc1 [Compound 86, N-((6-(7-(4-(3-cyclopropylureido)-2-fluorophenoxy)thieno[3,2-b]pyridin-2-yl)pyridin-3-yl)methyl)-N-(2-methoxyethyl)propionamide]
Second: COCCN(Cc1ccc(-c2cc3nccc(Oc4ccc(NC(=S)NC5CC5)cc4F)c3s2)nc1)C(=O)CO [Compound 505, N-((6-(7-(4-(3-cyclopropylthioureido)-2-fluorophenoxy)thieno[3,2-b]pyridin-2-yl)pyridin-3-yl)methyl)-2-hydroxy-N-(2-methoxyethyl)acetamide]
The IC50 of the first is lower: under 50 nM for the first, 50 to 100 nM for the second.

`CC1(C)CN(Cc2ccc(-c3cc4nccc(Oc5ccc(NC(=O)NC6CC6)cc5F)c4s3)nc2)CCN1CCO` [Compound 500, 1-cyclopropyl-3-(3-fluoro-4-(2-(5-((4-(2-hydroxyethyl)-3,3-dimethylpiperazin-1-yl)methyl)pyridin-2-yl)thieno[3,2-b]pyridin-7-yloxy)phenyl)urea] and `CC1(C)CN(Cc2ccc(-c3cc4nccc(Oc5ccc(NC(=O)NC6CC6)cc5F)c4s3)nc2)CCN1C(=O)CO` [Compound 498, 1-cyclopropyl-3-(3-fluoro-4-(2-(5-((4-(2-hydroxyacetyl)-3,3-dimethylpiperazin-1-yl)methyl)pyridin-2-yl)thieno[3,2-b]pyridin-7-yloxy)phenyl)urea] cannot be ordered by IC50: under 50 nM for the first, under 50 nM for the second.

`CCNC(=O)N1CCN(Cc2ccc(-c3cc4nccc(Oc5ccc(NC(=O)NC6CC6)cc5F)c4s3)nc2)C[C@@H]1C` [Compound 556] and `CCNC(=O)N(C)C1CCN(Cc2ccc(-c3cc4nccc(Oc5ccc(NC(=O)NC6CC6)cc5F)c4s3)nc2)CC1` [Compound 407] cannot be ordered by IC50: under 50 nM for the first, under 50 nM for the second.

`CN(CCO)C1CCN(Cc2ccc(-c3cc4nccc(Oc5ccc(NC(=O)NC6CC6)cc5F)c4s3)nc2)CC1` [Compound 417] and `O=C(O)CC1CCN(Cc2ccc(-c3cc4nccc(Oc5ccc(NC(=O)NC6CC6)cc5F)c4s3)nc2)CC1` [Compound 63, 2-(l-((6-(7-(4-(3-cyclopropylureido)-2-fluorophenoxy)thieno[3,2-b]pyridin-2-yl)pyridin-3-yl)methyl)piperidin-4-yl)acetic acid] cannot be ordered by IC50: under 50 nM for the first, under 50 nM for the second.

`O=C(Nc1ccc(Oc2ccnc3cc(-c4ccc(CNc5cccc(OCCN6CCOCC6)c5)cn4)sc23)c(F)c1)NC1CC1` [Compound 341, 1-cyclopropyl-3-(3-fluoro-4-(2-(5-((3-(2-morpholinoethoxy)phenylamino)methyl)pyridin-2-yl)thieno[3,2-b]pyridin-7-yloxy)phenyl)urea] and `O=C(Nc1ccc(Oc2ccnc3cc(-c4ccc(C(=O)NCCN5CCOCC5)cn4)sc23)c(F)c1)NC1CC1` [Compound 235, 6-(7-(4-(3-cyclopropylureido)-2-fluorophenoxy)thieno[3,2-b]pyridin-yl)-N-(2-morpholinoethyl)nicotinamide] cannot be ordered by IC50: under 50 nM for the first, under 50 nM for the second.

`CN(C)CCNCC(=O)N1CCN(Cc2ccc(-c3cc4nccc(Oc5ccc(NC(=O)NC6CC6)cc5F)c4s3)nc2)CC1` [Compound 549, 1-cyclopropyl-3-(4-(2-(5-((4-(2-(2-(dimethylamino)ethylamino)acetyl)piperazin-1-yl)methyl)pyridin-2-yl)thieno[3,2-b]pyridin-7-yloxy)-3-fluorophenyl)urea] and `O=C(O)CCCCCCN1CCN(Cc2ccc(-c3cc4nccc(Oc5ccc(NC(=O)NC6CC6)cc5F)c4s3)nc2)CC1` [Compound 521, 7-(4-((6-(7-(4-(3-cyclopropylureido)-2-fluorophenoxy)thieno[3,2-b]pyridin-2-yl)pyridin-3-yl)methyl)piperazin-1-yl)heptanoic acid] cannot be ordered by IC50: under 50 nM for the first, under 50 nM for the second.

`CCNC(=O)N(CCOC)Cc1ccc(-c2cc3nccc(Oc4ccc(NC(=O)NC5CC5)c(F)c4F)c3s2)nc1` [Compound 35, N-[3-((6-(7-(4-(3-cyclopropylureido)-2,3-difluorophenoxy)thieno[3,2-b]pyridin-2-yl)pyridin-3-yl)methyl)]-N-(1-ethyl)-N-(2-methoxyethyl)urea] and `NC(CCCCNCc1ccc(-c2cc3nccc(Oc4ccc(NC(=O)NC5CC5)c(F)c4F)c3s2)nc1)C(=O)O` (stereo not shown) [Compound 170, 2-amino-6-((6-(7-(4-(3-cyclopropylureido)-2,3-difluorophenoxy)thieno[3,2-b]pyridin-2-1)pyridin-3-yl)methylamino)hexanoic acid] cannot be ordered by IC50: under 50 nM for the first, under 50 nM for the second.

`CN1CCN(C(=O)C2CCCN(C(=O)c3cc4nccc(Oc5ccc(NC(=O)NC6CC6)cc5F)c4s3)C2)CC1` (stereo not shown) [Compound 473, 1-cyclopropyl-3-(3-fluoro-4-(2-(3-(4-methylpiperazine-1-carbonyl)piperidine-1-carbonyl)thieno[3,2-b]pyridin-7-yloxy)phenyl)urea] and `O=C(Nc1ccc(Oc2ccnc3cc(C(=O)N4CCOCC4)sc23)c(F)c1)NC1CC1` [Compound 450] cannot be ordered by IC50: under 50 nM for the first, under 50 nM for the second.

`O=C(Nc1ccc(Oc2ccnc3cc(-c4cn(CCC(=O)N5CCCCC5)nn4)sc23)c(F)c1)NC1CC1` [Compound 379] and `O=C(Nc1ccc(Oc2ccnc3cc(-c4cn(CC(=O)N5CCOCC5)nn4)sc23)c(F)c1)NC1CC1` [Compound 368] cannot be ordered by IC50: under 50 nM for the first, under 50 nM for the second.

`COCCN(Cc1ccc(-c2cc3nccc(Oc4ccc(NC(=O)NC5CC5)cc4F)c3s2)cc1)C(=O)NC(C)C` [Compound 193, 1-(4-(7-(4-cyclopropylaminocarbonylamino-2-fluorophenoxy)thieno-[3,2-b]pyridin-2-yl)benzyl)-3-isopropyl-1-(2-methoxyethyl)urea] and `COCCN(CCn1cc(-c2cc3nccc(Oc4ccc(NC(=O)NC5CC5)cc4F)c3s2)cn1)C(C)=O` [Compound 254, N-(2-(4-(7-(4-(3-cyclopropylureido)-2-fluorophenoxy)thieno[3,2-b]pyridine-2-yl)-1H-pyrazol-1-yl)ethyl)-N-(2-methoxyethyl)acetamide] cannot be ordered by IC50: under 50 nM for the first, under 50 nM for the second.

`COCCOCCOCCOCCNCc1ccc(-c2cc3nccc(Oc4ccc(NC(=O)NC5CC5)c(F)c4F)c3s2)nc1` [Compound 171, 1-(4-(2-(5-5,8,11,14-tetraoxa-2-azapentadecylpyridin-2-yl)thieno[3,2-b]pyridin-7-yloxy)-2,3-diiluorophenyl)-3-cyclopropylurea] and `CN(C(=O)OC(C)(C)C)C1CCN(Cc2ccc(-c3cc4nccc(Oc5ccc(NC(=O)NC6CC6)cc5F)c4s3)nc2)CC1` [342-A] cannot be ordered by IC50: under 50 nM for the first, under 50 nM for the second.

First: CS(=O)(=O)c1cccc(NC(=O)Nc2ccc(Oc3ccnc4cc(-c5ccc(C(=O)N6CCCC6)cc5)sc34)c(F)c2)c1 [Compound 130, 1-(3-fluoro-4-(2-(4-(pyrrolidine-1-carbonyl)phenyl)thieno[3,2-b]pyridin-7-yloxy)phenyl)-3-(3-(methylsulfonyl)phenyl)urea]
Second: O=C(Nc1ccccc1)Nc1ccc(Oc2ccnc3cc(C#CCN4CCOCC4)sc23)c(F)c1 [Compound 120, 1-(3-fluoro-4-(2-(3-morpholinoprop-1-ynyl)thieno[3,2-b]pyridin-7-yloxy)phenyl)-3-phenylurea]
The IC50 of the first is lower: under 50 nM for the first, 100 to 250 nM for the second.

`O=C(Nc1ccc(Oc2ccnc3cc(-c4ccc(C(=O)N5CCN(CCN6CCOCC6)CC5)cn4)sc23)c(F)c1)NC1CC1` [Compound 231, 1-cyclopropyl-3-(3-fluoro-4-(2-(5-(4-(2-morpholinoethyl)piperazine-1-carbonyl)pyridin-2-yl)thieno[3,2-b]pyridin-7-yloxy)phenyl)urea] and `O=C(O)CC(N1CCN(Cc2ccc(-c3cc4nccc(Oc5ccc(NC(=O)NC6CC6)cc5F)c4s3)nc2)CC1)C(F)(F)F` (stereo not shown) [Compound 511, 3-(4-((6-(7-(4-(3-cyclopropylureido)-2-fluorophenoxy)thieno[3,2-b]pyridin-2-yl)pyridin-yl)methyl)piperazin-1-yl)-4,4,4-trifluorobutanoic acid] cannot be ordered by IC50: under 50 nM for the first, under 50 nM for the second.

First: O=C(Nc1ccc(Oc2ccnc3cc(-c4ccc(CN5CCN(Cc6ccncc6)CC5)cn4)sc23)c(F)c1)NC1CC1 [Compound 325, 1-cyclopropyl-3-(3-fluoro-4-(2-(5-((4-(pyridin-4-ylmethyl)piperazin-1-yl)methyl)pyridin-2-yl)thieno[3,2-b]pyridin-7-yloxy)phenyl)urea]
Second: CN(C)CCNC(=O)C1CCN(C(=O)c2cc3nccc(Oc4ccc(NC(=O)NC5CC5)cc4F)c3s2)CC1 [Compound 471, 1-(7-(4-(3-cyclopropylureido)-2-fluorophenoxy)thieno[3,2-b]pyridine-2-carbonyl)-N-(2-(dimethylamino)ethyl)piperidine-4-carboxamide]
The IC50 of the first is lower: under 50 nM for the first, 50 to 100 nM for the second.
